Legend:
Cells producing MAb A = assay: mock perfusion assay, glycan analysis; assay type: cell-based, Chinese hamster; conditions: for Man5 / Man6 / Man7 / Man8a / Man8b / Man9: day 10
Method: (§1) Mock perfusion assay is a small scale, plate-based assay that is designed to mimic perfusion conditions in bioreactors through daily medium exchanges. For a 10-day mock perfusion assay, passaging cultures of various production cell lines were diluted 1:5 into chemically defined base perfusion medium in a 24 deep-well plate at a final volume of 3 ml per well. Mock perfusion was initiated on day 3 when the cells were spun down at 1000 rpm for 5 minutes and 25% of each spent culture medium was exchanged with the equivalent volume of fresh perfusion media. Subsequent medium exchange percentages were 40% on days 4-8 and 50% on day 9. Exchanged supernatants were stored at 4° C. prior to analysis.
(§2) Analysis of cell culture parameters was also started on day 3; viable cell density and viability were analyzed using the ViaCount Guava assay as previously described. Glucose was measured daily starting on day 3 and was maintained at 12 g/l. Stored supernatants were analyzed for antibody titer as described previously. Samples of supernatant fluid from days 6, 8 and 10 were also analyzed for the presence and type of glycans by HILIC analysis.
(§3) The cell lines used included three production cell lines that are known to generate mAbs with low high mannose glycans (MAb A, MAb B and MAb C) and one production cell line that consistently produces product with high levels of high mannose glycans (MAb D). […] Equivalent volumes of methanol were added daily to control cultures (columns 1 and 2 of the 24-well plate). This scheme is depicted below:
(§4) Total high mannose values (Total HM column) and the corresponding distributions into high mannose species from Man5 through Man9 were determined for purified antibody samples collected on day 10. Each value shown in Table 4 represents an average of duplicates.

Cells producing MAb B = assay: mock perfusion assay, glycan analysis; assay type: cell-based, Chinese hamster; conditions: for Man5 / Man6 / Man7 / Man8a / Man8b / Man9: day 10
Method: as §1, §2, §3, §4

Cells producing MAb D = assay: mock perfusion assay, glycan analysis; assay type: cell-based, Chinese hamster; conditions: for Man5 / Man6 / Man7 / Man8a / Man8b / Man9: day 10
Method: as §1, §2, §3, §4

[1] = system: recombinant cell line producing MAb E; assay: ATF bioreactors, high mannose analysis (RP-HPLC/MS); assay type: cell-based
Method: The applicability of using monensin to modulate high mannose levels in a large scale, controlled production setting was evaluated using a recombinant cell line producing MAb E in alternating tangential flow (ATF) bioreactors. MAb E cells grown in growth medium for the seed train were used to inoculate the N-1 bioreactor at 6×10^5 cells/ml in growth medium. The cells from N-1 bioreactor were then used to inoculate three, 2 L production bioreactors (N) at 7.5×10^5 cells/ml in base perfusion medium (referred to as control, Ra, and Rb bioreactors).
The production bioreactors were grown for 20 days at pH 7.00, 36° C., 30% DO and 400 rpm agitation. These production tanks were run with the ATF system starting on day 3 with 0.5 vol/day perfusion rate, which was increased to 0.6 vol/day, 0.8352 vol/day and 1 vol/day on day 6, 7 and 8, respectively. Glucose levels were maintained separately at 5 g/L since the perfusion medium was prepared without glucose.
Antifoam was also added into the tank as needed, while 1M Sodium Carbonate was used to maintain pH at the desired setpoint. Daily tank samples were collected for the measurement of various cell culture parameters as well as for the titer and high mannose analyses.
Sixty micrograms of daily MAb E samples collected from ATF bioreactors were digested into the Fc/2 and Fab′2 with 60 units of the IdeS enzyme (fabRICATOR, Genovis, Lund, Sweden) in 50 mM Sodium Phosphate, 150 mM NaCl, pH 6.6 with incubation in a 37° C. water bath for 30 minutes. The digested samples were then reduced in 4M Guanidine Hydrochloride 50 mM Tris, pH 8.3 with 50 mM DTT followed by incubation in a 55° C. heat block for 10 minutes resulting in reduction to Fc/2, LC and Fd.
Following digestion and reduction, samples were analyzed immediately by RP-HPLC/MS.
Analysis was performed using Waters Acquity Ultra-Performance liquid chromatography (UPLC) system (Waters, Milford, Mass.) coupled to an Agilent MST Time of Flight (TOF) mass spectrometer (Agilent Technologies, Santa Clara, Calif.). The digested and reduced samples were separated on a reversed-phased Waters BEH Phenyl column (1.7 micron particle size, 2.1×150 mm; Waters, Milford, Mass.) maintained at 80° C. […]
Five micrograms of each sample was injected and eluted at a flow rate of 0.5 mL/min with the following gradient: 30% B was held for 2.5 minutes followed by a gradient from 30% to 45% B over a duration of 5 minutes, followed by a gradient from 45% to 100% B over 0.5 minutes; B was held at 100% for 4 minutes, followed by a gradient of 100% to 30% B over 0.1 minutes, and then held at 30% B for the remaining 2.9 minutes. The UV elution was also monitored at a wavelength of 220 nm. […] Ion intensities of the deconvoluted peaks were used for quantification of the glycan species.

[2] = constant monensin 25 nM from day 3, Day 6
[3] = constant monensin 25 nM from day 3, Day 8
[4] = constant monensin 25 nM from day 3, Day 10
[5] = increasing monensin (25 nM day 4, 50 nM days 5-6, 100 nM days 7-9), Day 6
[6] = increasing monensin (25 nM day 4, 50 nM days 5-6, 100 nM days 7-9), Day 8
[7] = increasing monensin (25 nM day 4, 50 nM days 5-6, 100 nM days 7-9), Day 10
[8] = increasing monensin (to 100 nM)
[9] = 500 nM monensin for ~22 hours from day 8, MAb E

SMILES: CC[C@@]1([C@@H]2O[C@@H]([C@H]3O[C@@](O)(CO)[C@H](C)C[C@@H]3C)C[C@@H]2C)CC[C@H]([C@]2(C)CC[C@]3(C[C@H](O)[C@@H](C)[C@@H]([C@@H](C)[C@@H](OC)[C@H](C)C(=O)O)O3)O2)O1 [monensin]
- Total HM (Cells producing MAb A; [2]): 55.7%
- Total HM (Cells producing MAb A; [3]): 19.7%
- Total HM (Cells producing MAb A; [4]): 9%
- Man5 (Cells producing MAb A; constant monensin 25 nM): 5.6%
- Man6 (Cells producing MAb A; constant monensin 25 nM): 1.2%
- Man7 (Cells producing MAb A; constant monensin 25 nM): 1.0%
- Man8a (Cells producing MAb A; constant monensin 25 nM): 0.4%
- Man8b (Cells producing MAb A; constant monensin 25 nM): 0.6%
- Man9 (Cells producing MAb A; constant monensin 25 nM): 0.2%
- Total HM (Cells producing MAb A; increasing monensin (25 nM day 4, 50 nM days 5-9), Day 6): 61.9%
- Total HM (Cells producing MAb A; increasing monensin (25 nM day 4, 50 nM days 5-9), Day 8): 44.9%
- Total HM (Cells producing MAb A; increasing monensin (25 nM day 4, 50 nM days 5-9), Day 10): 23.2%
- Man5 (Cells producing MAb A; increasing monensin (to 50 nM)): 14.2%
- Man6 (Cells producing MAb A; increasing monensin (to 50 nM)): 3.7%
- Man7 (Cells producing MAb A; increasing monensin (to 50 nM)): 1.9%
- Man8a (Cells producing MAb A; increasing monensin (to 50 nM)): 0.6%
- Man8b (Cells producing MAb A; increasing monensin (to 50 nM)): 1.4%
- Man9 (Cells producing MAb A; increasing monensin (to 50 nM)): 0.4%
- Total HM (Cells producing MAb B; [2]): 9.6%
- Total HM (Cells producing MAb B; [3]): 4.6%
- Total HM (Cells producing MAb B; [4]): 4.0%
- Man5 (Cells producing MAb B; constant monensin 25 nM): 2.2%
- Man6 (Cells producing MAb B; constant monensin 25 nM): 0.7%
- Man7 (Cells producing MAb B; constant monensin 25 nM): 0.5%
- Man8a (Cells producing MAb B; constant monensin 25 nM): 0.3%
- Man8b (Cells producing MAb B; constant monensin 25 nM): 0.3%
- Man9 (Cells producing MAb B; constant monensin 25 nM): 0.0%
- Total HM (Cells producing MAb B; [5]): 13.2%
- Total HM (Cells producing MAb B; [6]): 12.4%
- Total HM (Cells producing MAb B; [7]): 14.0%
- Man5 (Cells producing MAb B; [8]): 7.7%
- Man6 (Cells producing MAb B; [8]): 3.0%
- Man7 (Cells producing MAb B; [8]): 2.0%
- Man8a (Cells producing MAb B; [8]): 0.3%
- Man8b (Cells producing MAb B; [8]): 0.9%
- Man9 (Cells producing MAb B; [8]): 0.1%
- Total HM (Cells producing MAb D; [2]): 70.6%
- Total HM (Cells producing MAb D; [3]): 80.1%
- Total HM (Cells producing MAb D; [4]): 72.6%
- Man5 (Cells producing MAb D; constant monensin 25 nM): 30.4%
- Man6 (Cells producing MAb D; constant monensin 25 nM): 14.7%
- Man7 (Cells producing MAb D; constant monensin 25 nM): 15.3%
- Man8a (Cells producing MAb D; constant monensin 25 nM): 0.7%
- Man8b (Cells producing MAb D; constant monensin 25 nM): 10.1%
- Man9 (Cells producing MAb D; constant monensin 25 nM): 1.4%
- high mannose species upregulated (Cells producing MAb D; increasing dose of monensin): primarily upregulated Man7 and Man8(b) high mannose glycans
- Total HM (Cells producing MAb D; [5]): 83.0%
- Total HM (Cells producing MAb D; [6]): 92.5%
- Total HM (Cells producing MAb D; [7]): 94.9%
- Man5 (Cells producing MAb D; [8]): 12.8%
- Man6 (Cells producing MAb D; [8]): 14.9%
- Man7 (Cells producing MAb D; [8]): 27.2%
- Man8a (Cells producing MAb D; [8]): 0.8%
- Man8b (Cells producing MAb D; [8]): 34.3%
- Man9 (Cells producing MAb D; [8]): 5.0%
- high mannose levels, initial spike [1, 9]: 35-50%
- increase in the levels of high mannose glycans on the recombinant antibodies [1, 9]: 9-10 fold
- high mannose levels on the day of the harvest ([1]; after flushing out of monensin by perfusion, MAb E): 15-17%
- produced antibodies containing high mannose glycans at peak ([1]; day 10, 500 nM monensin for ~22 hours from day 8, from predicted and measured levels): 89%
